The supplement of paper PMC11208160

Assay: recombinant barcode read abundance after kanamycin selection (control-corrected) (log10(CPM+1)); higher = more efficient recombination; sequences stand for … in AGTGCAGAGAAAATCGGCCAGTTTTCTCTGCCTGCAGTCCGCATGCCGT…AGATTTATGCAGCGGACTGCCTTTCTCCCAAAGTGATAAACCGGACAGTATCATGGACCGGTTTTCCCGGTAATCCGTATTTGCAAGGTTGGTTTCACT; site = the 11-nt target
In short: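 Reported as log10(CPM+1), each value stands for recombination efficiency. That efficiency is the averaged, control-corrected counts per million of barcodes found at recombinant junctions. Cells from a pooled E. coli library pairing targets with IS621 bridge RNA target-binding loops were plated twice on chloramphenicol/ampicillin LB agar (control) and twice on chloramphenicol/ampicillin/kanamycin with 0.1 mM IPTG.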
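Further: IS621 recombinase and bridge RNA in Escherichia coli cells.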

Row | Sequence | recombinant barcode read abundance (log10)
1 | TGGAGCCCTTGGGTTCTAACCTGTTGCAT (site TGGAGCCCTGT) | 0.0522
2 | TGGAGCCCTTGGGTTCTAACCTGTTGCAT (site TGGAGCCCTTT) | 0.15
3 | TGGATGCCTTGGGTTCTAACCTGTTGCCT (site TGAATGACTAG) | 0.0485
4 | TGGATGCCTTGGGTTCTAACCTGTTGCCT (site TGGATGCCTAG) | 0.884
5 | TGGATTGCTTGGGTTCTAACCTGTTGCCT (site TGGATTCCTAG) | 0.0162
6 | TGGATTGCTTGGGTTCTAACCTGTTGCCT (site TGGATTGCTAG) | 0.74
7 | TGGCACCCTTGGGTTCTAACCTGTTGCGG (site TGGAACCCTCC) | 0.129
8 | TGGCACCCTTGGGTTCTAACCTGTTGCGG (site TGGCACCCTCC) | 2.42
9 | TGGCACTCTTGGGTTCTAACCTGTTGCTT (site AGGCACTCTCA) | 0.177
10 | TGGCACTCTTGGGTTCTAACCTGTTGCTT (site TGGCACTCTAA) | 1.02
11 | TGGCCAACTTGGGTTCTAACCTGTTGCGT (site TAGTCAACTAC) | 0.434
12 | TGGCCAACTTGGGTTCTAACCTGTTGCGT (site TGGCCAACTAC) | 1.84
13 | TGGCGTCCTTGGGTTCTAACCTGTTGCCT (site TGGAGTCCTAG) | 0.0306
14 | TGGCGTCCTTGGGTTCTAACCTGTTGCCT (site TGGCGTCCTAG) | 0.963
15 | TGGCGTCCTTGGGTTCTAACCTGTTGCCT (site TGGGGTCCTAG) | 0.0381
16 | TGGCGTCCTTGGGTTCTAACCTGTTGCCT (site TGGTGTCCTAG) | 0.116
17 | TGGGACTCTTGGGTTCTAACCTGTTGCCT (site TGAGACTCTAG) | 2.44
18 | TGGGACTCTTGGGTTCTAACCTGTTGCCT (site TGCGACTCTAG) | 0.00712
19 | TGGGACTCTTGGGTTCTAACCTGTTGCCT (site TGGGACTCTAG) | 2.64
20 | TGGGACTCTTGGGTTCTAACCTGTTGCCT (site TGTGACTCTAG) | 0.108
21 | TGGGCACCTTGGGTTCTAACCTGTTGCTT (site GGGGCACCTTA) | 0.175
22 | TGGGCACCTTGGGTTCTAACCTGTTGCTT (site TGGGCACCTAA) | 1.37

Row | Sequence | recombinant barcode read abundance (log10)
23 | TGGGGTACTTGGGTTCTAACCTGTTGCCT (site TGGAGTACTAG) | 0.141
24 | TGGGGTACTTGGGTTCTAACCTGTTGCCT (site TGGCGTACTAG) | 0.097
25 | TGGGGTACTTGGGTTCTAACCTGTTGCCT (site TGGGGTACTAG) | 1.11
26 | TGGGGTACTTGGGTTCTAACCTGTTGCCT (site TGGTGTACTAG) | 0.177
27 | TGGGTCCCTTGGGTTCTAACCTGTTGCTT (site TGAGTCCCTTA) | 0.272
28 | TGGGTCCCTTGGGTTCTAACCTGTTGCTT (site TGGGTCCCTAA) | 2.1
29 | TGGTACGCTTGGGTTCTAACCTGTTGCCT (site TGGTACGCTAG) | 1.45
30 | TGGTACGCTTGGGTTCTAACCTGTTGCCT (site TGGTCCGCTAG) | 0.235
31 | TGGTACGCTTGGGTTCTAACCTGTTGCCT (site TGGTGCGCTAG) | 0.15
32 | TGGTACGCTTGGGTTCTAACCTGTTGCCT (site TGGTTCGCTAG) | 0.24
33 | TGGTGCCCTTGGGTTCTAACCTGTTGCGG (site TGCTTCCCTCC) | 0.109
34 | TGGTGCCCTTGGGTTCTAACCTGTTGCGG (site TGGTGCCCTCC) | 1.45
35 | TGGTGTACTTGGGTTCTAACCTGTTGCCT (site TGGAGTACTAG) | 0.0346
36 | TGGTGTACTTGGGTTCTAACCTGTTGCCT (site TGGCGTACTAG) | 0.426
37 | TGGTGTACTTGGGTTCTAACCTGTTGCCT (site TGGGGTACTAG) | 0.143
38 | TGGTGTACTTGGGTTCTAACCTGTTGCCT (site TGGTGTACTAG) | 0.461
39 | TGTAAGACTTGGGTTCTAACCTGTTGCAG (site GAACGCTCTAA) | 0.0634
40 | TGTAAGACTTGGGTTCTAACCTGTTGCAG (site TGTAAGACTCT) | 0.644
41 | TGTAAGACTTGGGTTCTAACCTGTTGCTG (site TGTAAGACTCA) | 0.505
42 | TGTAAGACTTGGGTTCTAACCTGTTGCTG (site TGTAAGGCTAA) | 0.015
43 | TGTAGAGCTTGGGTTCTAACCTGTTGCCG (site TGTAGAGCTCG) | 0.243
44 | TGTAGAGCTTGGGTTCTAACCTGTTGCCG (site TGTCGAGCTCG) | 0.483

Row | Sequence | recombinant barcode read abundance (log10)
45 | TGTAGAGCTTGGGTTCTAACCTGTTGCCG (site TGTGGAGCTCG) | 0
46 | TGTAGAGCTTGGGTTCTAACCTGTTGCCG (site TGTTGAGCTCG) | 0.258
47 | TGTAGATCTTGGGTTCTAACCTGTTGCAT (site TGTAGATCTAT) | 0.152
48 | TGTAGATCTTGGGTTCTAACCTGTTGCAT (site TGTTGACCTAT) | 0.15
49 | TGTAGTCCTTGGGTTCTAACCTGTTGCTT (site TGTAGTCCTAA) | 0.0506
50 | TGTAGTCCTTGGGTTCTAACCTGTTGCTT (site TGTAGTCCTAC) | 0.264
51 | TGTAGTCCTTGGGTTCTAACCTGTTGCTT (site TGTAGTCCTAG) | 0.187
52 | TGTAGTCCTTGGGTTCTAACCTGTTGCTT (site TGTAGTCCTAT) | 0.0117
53 | TGTATAGCTTGGGTTCTAACCTGTTGCTA (site GGTTTAGCTTA) | 0.00884
54 | TGTATAGCTTGGGTTCTAACCTGTTGCTA (site TGTATAGCTTA) | 0.0299
55 | TGTCAACCTTGGGTTCTAACCTGTTGCCT (site TGTCAAACTAG) | 0.346
56 | TGTCAACCTTGGGTTCTAACCTGTTGCCT (site TGTCAACCTAG) | 0.998
57 | TGTCAACCTTGGGTTCTAACCTGTTGCCT (site TGTCAAGCTAG) | 0.12
58 | TGTCAACCTTGGGTTCTAACCTGTTGCCT (site TGTCAATCTAG) | 0
59 | TGTCATGCTTGGGTTCTAACCTGTTGCGT (site CTCACACCTCT) | 0.238
60 | TGTCATGCTTGGGTTCTAACCTGTTGCGT (site TGTCATGCTAC) | 0.163
61 | TGTCCTGCTTGGGTTCTAACCTGTTGCCT (site AGTCCTGCTAG) | 0
62 | TGTCCTGCTTGGGTTCTAACCTGTTGCCT (site CGTCCTGCTAG) | 0.167
63 | TGTCCTGCTTGGGTTCTAACCTGTTGCCT (site GGTCCTGCTAG) | 0.11
64 | TGTCCTGCTTGGGTTCTAACCTGTTGCCT (site TGTCCTGCTAG) | 0.36
65 | TGTCGATCTTGGGTTCTAACCTGTTGCCT (site TGTCAATCTAC) | 0.0889
66 | TGTCGATCTTGGGTTCTAACCTGTTGCCT (site TGTCGATCTAG) | 0.94

Row | Sequence | recombinant barcode read abundance (log10)
67 | TGTCTAGCTTGGGTTCTAACCTGTTGCGG (site CCAAATCCTAT) | 0.208
68 | TGTCTAGCTTGGGTTCTAACCTGTTGCGG (site TGTCTAGCTCC) | 0.695
69 | TGTCTATCTTGGGTTCTAACCTGTTGCCT (site TGTCTACCTAG) | 0.123
70 | TGTCTATCTTGGGTTCTAACCTGTTGCCT (site TGTCTATCTAG) | 0.429
71 | TGTCTGGCTTGGGTTCTAACCTGTTGCCT (site AGTCTGGCTAG) | 0.215
72 | TGTCTGGCTTGGGTTCTAACCTGTTGCCT (site TGTCTGGCTAG) | 0.0185
73 | TGTCTGTCTTGGGTTCTAACCTGTTGCTA (site TGTCTGTCTAA) | 0.0174
74 | TGTCTGTCTTGGGTTCTAACCTGTTGCTA (site TGTCTGTCTTA) | 0.0943
75 | TGTGAGTCTTGGGTTCTAACCTGTTGCGT (site TGTGAGTCTAA) | 0.347
76 | TGTGAGTCTTGGGTTCTAACCTGTTGCGT (site TGTGAGTCTAC) | 2.55
77 | TGTGAGTCTTGGGTTCTAACCTGTTGCGT (site TGTGAGTCTAG) | 0.27
78 | TGTGAGTCTTGGGTTCTAACCTGTTGCGT (site TGTGAGTCTAT) | 1.42
79 | TGTGCGGCTTGGGTTCTAACCTGTTGCCT (site AGTGCGGCTAG) | 0.0331
80 | TGTGCGGCTTGGGTTCTAACCTGTTGCCT (site CGTGCGGCTAG) | 0.00936
81 | TGTGCGGCTTGGGTTCTAACCTGTTGCCT (site GGTGCGGCTAG) | 0.535
82 | TGTGCGGCTTGGGTTCTAACCTGTTGCCT (site TGTGCGGCTAG) | 0.152
83 | TGTTCCTCTTGGGTTCTAACCTGTTGCCT (site TGTACCTCTAG) | 0.143
84 | TGTTCCTCTTGGGTTCTAACCTGTTGCCT (site TGTCCCTCTAG) | 0.142
85 | TGTTCCTCTTGGGTTCTAACCTGTTGCCT (site TGTGCCTCTAG) | 0.114
86 | TGTTCCTCTTGGGTTCTAACCTGTTGCCT (site TGTTCCTCTAG) | 0.106
